Measured values from patent US4988707A, “Pharmacologically active phenylalkanoyl substituted imidazo (4,5-C) pyridines” (G. D. Searle & Co., priority 1989, dated 1991).

Assays:
Rabbit Platelet [1] = assay: PAF-induced platelet secretion ([3H]serotonin); assay type: cell-based; conditions: Oryctolagus cuniculus, washed [3H]serotonin-labeled rabbit platelets, 60 sec preincubation, PAF 0.2 nM to 0.2 μM, secretion at 60 sec
Experimental: (§1) PAF-induced platelet aggregation and secretion: Washed, [^3 H]serotonin-labeled rabbit platelets were prepared as previously described in COX, C. P , J. LINDEN and S. I. SAID: VIP elevates platelet cyclic AMP (cAMP) levels and inhibits in vitro platelet activation induced by platelet activating factor (PAF). Peptides 5:25-28, 1984, and maintained in an atmosphere of 5% CO2 at 37° C. until used in the bioassay. Aliquots of platelets (2.5×10^8 /ml) were incubated with either an antagonist of PAF or the appropriate vehicle for 60 sec prior to the addition of PAF (0.2 nM to 0.2 μM). Aggregation was continuously monitored on a strip-chart recorder and recorded as the height of the tracing at 60 sec after the addition of PAF. Secretion of [^3 H] serotonin was measured in a sample of the platelet suspension removed at 60 sec after the addition of PAF. The percent inhibition of aggregation and secretion was calculated by comparing antagonist-treated platelets with the appropriate vehicle-treated control platelets. Each combination of antagonist and PAF was repeated using different platelet preparations. IC50 values were determined by inspection of the dose-response curves.

Rabbit Platelet [2] = assay: PAF-induced platelet aggregation; assay type: cell-based; conditions: Oryctolagus cuniculus, washed rabbit platelets, 60 sec preincubation, PAF 0.2 nM to 0.2 μM, aggregation at 60 sec
Experimental: as §1

Human Platelet Receptor = Human Platelet Receptor (Homo sapiens, UniProt P25105)
Human Platelet Receptor, sequence (P25105 whole entry): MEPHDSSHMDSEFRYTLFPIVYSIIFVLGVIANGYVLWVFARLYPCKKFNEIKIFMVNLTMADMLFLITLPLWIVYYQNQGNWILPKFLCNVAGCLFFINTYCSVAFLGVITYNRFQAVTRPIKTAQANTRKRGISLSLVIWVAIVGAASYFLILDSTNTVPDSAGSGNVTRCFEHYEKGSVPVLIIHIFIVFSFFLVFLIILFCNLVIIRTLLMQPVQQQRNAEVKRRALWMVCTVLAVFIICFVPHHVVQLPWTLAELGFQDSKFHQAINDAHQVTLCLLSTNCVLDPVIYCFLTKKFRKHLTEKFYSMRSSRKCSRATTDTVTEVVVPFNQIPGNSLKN
Experimental: Inhibition of ^3 H-PAF Binding to Human Platelet Membrane Receptors
Receptor Preparation: Ten units of in-dated human packed platelets, each containing 45-65 ml platelet rich-plasma, were purchased from a commercial blood bank. Disposable plasticware was used throughout for receptor preparation. The units were pooled and a 1 ml aliquot was removed for determination of platelet concentration, using a Coulter Counter. The remaining platelet rich plasma was dispensed into 50 ml conical tubes and centrifuged at room temperature for 15 minutes at 3000 RPM (2300×g).Plasma was decanted and the platelets were resuspended in 35 ml of buffer (10 mM Trizma 7.0, 2 mM EDTA (dipotassium salt), and 150 mM KCl) and transferred to fresh tubes, which were centrifuged again as above. The platelets were washed 3 times, avoiding contaminating erythrocytes at the bottom of the pellets. Pellets were consolidated at each step, and by the last wash with EDTA/KCl buffer, most of the erythrocytes were in 1 tube. The pellets were resuspended in buffer containing 10 mM Trizma 7.0 with 10 mM CaCl2. Following centrifugation, the buffer was decanted and the pellets were resuspended in the CaCl2 buffer, avoiding erythrocyte contamination by recovering less than 100% of the platelet pellets. The resuspended platelets were dispensed in 8-10 ml aliquots into Corex tubes and disrupted by three cycles of freezing (dry ice/ethanol) and thawing (24° C.). The tubes were centrifuged at 40,000×g for 20 minutes at 4° C. Supernatants were decanted and each pellet was resuspended in 5-7 ml 10 mM Trizma 7.0. All resuspended pellets were pooled and aliquots of about 1200 μl were dispensed into 1.5 ml microfuge tubes and frozen at -70° C. Protein content was determined by a fluorescamine protein assay.
Assay Methods: Receptor Characterization--Each receptor preparation was evaluated to determine the number of receptor populations, the number of PAF receptor equivalents/mg protein and the dissociation constant (KD) for PAF binding. This required 2-3 experiments in which the protein concentration was held constant and the ^3 H-PAF ligand concentration was varied from approximately 0.10-2.5 nM and the data was analyzed by Scatchard methodology. Total incubation volume was 250 μl for these procedures and incubations were conducted at 24° C. for 30 minutes. For further experimentation, total incubation volumes are 500 μl. Protein and ligand concentrations were adjusted to give 0.075 nM receptor equivalents in the presence of 0.75 nM ^3 H-PAF. Each receptor preparation was then used to determine the dose--response displacement relationship of unlabeled PAF and the PAF antagonist, triazolam.
Assay Methods: Routine Assay of Compounds--The compounds were weighed precisely and solubilized in quantities of DMSO such that a 5 μl aliquot in the incubate would deliver the desired compound concentration. Compounds tested for the first time in this assay were evaluated at a concentration of 50 μM in the incubation medium. […] Triazolam was always included in each screening assay as a compound inhibition control. […] Nonspecific binding control solution was made by drying to completion about 26.2 μl unlabeled PAF under a stream of argon. PAF was resolubilized in 1000 μl DMSO. When delivered in a 5 μl aliquot, the final concentration of 1 μM PAF in the incubate exceeded by 1000-fold the concentration of ^3 H-PAF.
All buffers containing proteins were made at room temperature on the day of assay. […]

Q: How did the IC50 (Rabbit Platelet [1]) turn out when `O=C(CC1CCCC1)c1ccc(Cn2ccc3ncnc-3c2)cc1` [2-Cyclopentyl-1-[4-(5H-Imidazo[4,5-c]Pyridin-5-yl-Methyl)Phenyl]Ethanone] was run?
A: Its IC50 is 379 nM.

Q: What about the IC50 (Rabbit Platelet [2]) of the same compound?
A: The IC50 was 2590 nM.

Q: What about the IC50 (Human Platelet Receptor) of the same compound?
A: The IC50 was 8.41 nM.

Q: Which inhibition at 50 µM (Human Platelet Receptor; read-out: inhibition of 3H-PAF binding) does the source give for `Cc1nnc2n1-c1ccc(Cl)cc1C(c1ccccc1Cl)=NC2` [triazolam, reference compound] here?
A: Its inhibition at 50 µM is about 50%.

Q: Which results are given for `O=C(c1ccc(Cn2ccc3ncnc-3c2)cc1)C(C1CCCCC1)C1CCCC1` (stereo not shown) [2-Cyclohexyl-2-Cyclopentyl-1-[4-(5H Imidazol[4,5-c]Pyridin-5-yl-Methyl)Phenyl]Ethanone]?
A: IC50 (Rabbit Platelet [1]): 89 nM; IC50 (Rabbit Platelet [2]): 279 nM; IC50 (Human Platelet Receptor): 1.46 nM

Q: What does the source list for `O=C(CC1CCCCC1)c1ccc(Cn2ccc3ncnc-3c2)cc1` [2 Cyclohexyl-1-[4-(5H-Imidazo[4,5-c]Pyridin 5-yl-Methyl)Phenyl]Ethanone]?
A: IC50 (Rabbit Platelet [1]): 131 nM; IC50 (Rabbit Platelet [2]): 948 nM; IC50 (Human Platelet Receptor): 4.44 nM

Q: `C=CCC(C(=O)c1ccc(Cn2ccc3ncnc-3c2)cc1)C1CCCCC1` (stereo not shown) [2-Cyclohexyl-1-[4-(5H-Imidazo[4,5-c]Pyridin-5-yl-Methyl)Phenyl]-4-Penten-1-One] was tested. Which IC50 (Rabbit Platelet [1]) did it give?
A: Its IC50 is 105 nM.

Q: What about the IC50 (Rabbit Platelet [2]) of the same compound?
A: Its IC50 is 633 nM.

Q: What about the IC50 (Human Platelet Receptor) of the same compound?
A: The IC50 was 2.22 nM.
